Data reported in patent US20120010075A1 (priority 2009, published 2012).
Like-named read-outs stand apart in the source and are kept apart here.

Columns and labels:
[1] = tested on: Leptosphaeria nodorum (LEPTNO); assay: In vitro fungitoxicity of hydrazones with and without copper towards Leptosphaeria nodorum (Example 26); type: cell-based; conditions: for inhibition of growth at 0.05 µg/mL: Parastagonospora nodorum, 72 h, read-out: LEPTNO % Inhn. Minus Copper Observed
Phytophthora infestans = type: in vivo, Phytophthora infestans on tomato; conditions: applied 24 h before inoculation, assessed 7 days after inoculation
[2] = compound 0.05 μg/mL, copper-minus medium, 72 h at 25° C.
[3] = compound 0.05 μg/mL, copper-plus medium (CuCl2.2H2O), 72 h at 25° C.
[4] = hydrazone 50 ppm + 50 μM CuCl2.2H2O, tomato
[5] = copper-minus medium, test compound Concn. 0.05 μg/mL, 72 h at 25° C.
[6] = copper-plus medium (CuCl2 10 μM), test compound Concn. 0.05 μg/mL, 72 h at 25° C.
[7] = hydrazone 50 ppm with 50 μM CuCl2.2H2O, tomato late blight

Row | Compound | inhibition of growth at 0.05 µg/mL [1, 2] [%] | LEPTNO % Inhn. Plus Copper Observed [1, 3] [%] | TLB % Control (Phytophthora infestans; [4]) [%] | inhibition of growth at 0.05 µg/mL [1, 5] [%] | LEPTNO % Inhn. Plus Copper Observed [1, 6] [%] | TLB % Control (Phytophthora infestans; [7]) [%] | inhibition of growth at 0.05 µg/mL [1] [%] | LEPTNO % Inhn. Minus Copper Observed [1, 2] [%]
1 | COc1cc(Br)cc(/C=N/NC(=O)c2ccccc2)c1O [Example 156] | 7.4 | 94.8 | 51.5 |  |  |  |  | 
2 | C/C(=N\NC(=O)c1ccccc1O)c1ccccc1O [Example 213] | 3.7 | 98.8 | 56.1 |  |  |  |  | 
3 | O=C(N/N=C/c1cc(Cl)cc(Cl)c1O)c1ccc(Cl)cc1Cl [Example 78] | 7.9 | 96.3 | 70.9 |  |  |  |  | 
4 | COc1cc(O)c(/C(C)=N/NC(=O)c2ccccc2)c(OC)c1 [Example 526] |  |  |  | 1.8 | 16.2 | 41.0 |  | 
5 | C/C(=N\NC(=O)c1ccccc1[N+](=O)[O-])c1ccccc1O [Example 127] | 0 | 97.1 | 40.0 |  |  |  |  | 
6 | O=C(N/N=C/c1cc(Cl)cc(Br)c1O)c1ccccc1Cl [Example 161] | 7 | 97.7 | 58.2 |  |  |  |  | 
7 | COc1cccc(C(=O)N/N=C(\C)c2ccccc2O)c1 [Example 53] | 0 | 96.8 | 62.0 |  |  |  |  | 
8 | C/C(=N\NC(=O)c1ccccc1Br)c1ccccc1O [Example 64] | 0 | 97.8 | 43.0 |  |  |  |  | 
9 | C/C(=N\NC(=O)c1cccc(C)c1)c1ccccc1O [Example 38] | 2.4 | 98.3 | 17.0 |  |  |  |  | 
10 | O=C(N/N=C/c1ccc(Cl)cc1O)c1cccc(Cl)c1 [Example 391] |  |  |  | 6 | 96.9 | 92.0 |  | 
11 | COc1ccccc1C(=O)N/N=C/c1cc(Br)cc(Br)c1O [Example 114] | 0 | 36.9 | 7.5 |  |  |  |  | 
12 | CC/C(=N\NC(=O)c1ccccc1Cl)c1ccccc1O [Example 50] | 3.5 | 97.4 | 43.5 |  |  |  |  | 
13 | O=C(N/N=C/c1cc(Br)ccc1O)c1ccccc1Br [Example 160] | 3.4 | 96.1 | 65.5 |  |  |  |  | 
14 | Cc1cccc(C(=O)N/N=C/c2cc(Cl)cc(Br)c2O)c1 [Example 194] |  | 96.9 | 80.4 |  |  |  | 16.1 | 
15 | C/C(=N\NC(=O)c1ccc(Br)cc1)c1cc(Cl)cc(Cl)c1O [Example 139] | 1.7 | 97.1 | 93.0 |  |  |  |  | 
16 | O=C(N/N=C/c1cc(Br)ccc1O)c1ccccc1 [Example 148] | 15.4 | 97.9 | 72.9 |  |  |  |  | 
17 | COc1cc(OC)cc(C(=O)N/N=C/c2cc(Cl)cc(Cl)c2O)c1 [Example 88] | 10.7 | 96.7 | 4.8 |  |  |  |  | 
18 | COc1cccc(C(=O)N/N=C/c2cc(Cl)ccc2O)c1 [Example 188] | 7.9 | 96.5 | 74.6 |  |  |  |  | 
19 | C/C(=N\NC(=O)c1ccc(C(C)C)cc1)c1ccccc1O [Example 40] | 0 | 94.8 | 64.9 |  |  |  |  | 
20 | COc1cc(Br)cc(/C=N/NC(=O)c2ccc(C)cc2)c1O [Example 206] | 16.4 | 98.4 | 80.7 |  |  |  |  | 
21 | O=C(N/N=C/c1cc(Cl)cc(Br)c1O)c1ccccc1Br [Example 193] | 0 | 95.1 | 80.0 |  |  |  |  | 
22 | O=C(N/N=C/c1cc(Br)cc(Br)c1O)c1ccc(Br)cc1 [Example 118] | 10.6 | 98.3 | 85.3 |  |  |  |  | 
23 | Cc1ccc([N+](=O)[O-])c(C(=O)N/N=C/c2cc(Cl)cc(Cl)c2O)c1 [Example 9] | 0 | 93.6 | 67.3 |  |  |  |  | 
24 | C/C(=N\NC(=O)c1cccc(Br)c1)c1ccccc1O [Example 63] | 0 | 96.7 | 40.4 |  |  |  |  | 
25 | O=C(N/N=C/c1cc(Cl)ccc1O)c1ccc(Br)cc1 [Example 191] | 15.4 | 98.1 | 29.8 |  |  |  |  | 

Row | Compound | inhibition of growth at 0.05 µg/mL [1, 2] [%] | LEPTNO % Inhn. Plus Copper Observed [1, 3] [%] | TLB % Control (Phytophthora infestans; [4]) [%] | inhibition of growth at 0.05 µg/mL [1, 5] [%] | LEPTNO % Inhn. Plus Copper Observed [1, 6] [%] | TLB % Control (Phytophthora infestans; [7]) [%] | inhibition of growth at 0.05 µg/mL [1] [%] | LEPTNO % Inhn. Minus Copper Observed [1, 2] [%]
26 | C/C(=N\NC(=O)Cc1ccccc1)c1ccccc1O [Example 128] | 10.8 | 88.6 | 38.0 |  |  |  |  | 
27 | COc1ccc(O)c(/C=N/NC(=O)c2ccccc2)c1 [Example 154] | 3.4 | 70.7 | 36.6 |  |  |  |  | 
28 | C/C(=N\NC(=O)c1ccc(F)cc1)c1cc(Cl)cc(Cl)c1O [Example 59] | 12.8 | 97.5 | 79.7 |  |  |  |  | 
29 | C/C(=N\NC(=O)c1ccccc1O)c1cc(C(F)(F)F)ccc1O [Example 538] |  |  |  | 12.4 | 96.5 | 44.0 |  | 
30 | C/C(=N\NC(=O)c1ccc(C)cc1)c1ccccc1O [Example 36] | 5.9 | 98.4 | 33.9 |  |  |  |  | 
31 | COc1cc(Br)cc(/C=N/NC(=O)c2ccc(Cl)cc2)c1O [Example 205] | 15.4 | 97.2 | 78.9 |  |  |  |  | 
32 | C/C(=N\NC(=O)c1cccc(I)c1)c1ccccc1O [Example 13] |  | 96.2 | 33.3 |  |  |  |  | 0.0
33 | O=C(N/N=C/c1cc(Cl)cc(Cl)c1O)c1ccccc1Oc1ccccc1 [Example 90] | 9.5 | 96.4 | 54.6 |  |  |  |  | 
34 | COc1cccc(C(=O)N/N=C/c2cc(Br)ccc2O)c1 [Example 185] | 0 | 95.2 | 54.6 |  |  |  |  | 
35 | COc1ccc(/C=N/NC(=O)c2ccccc2)c(O)c1 [Example 147] | 0 | 95.6 | 13.5 |  |  |  |  | 
36 | COc1cc(Br)cc(/C=N/NC(=O)c2cccc(Cl)c2)c1O [Example 203] | 6.9 | 95.7 | 56.4 |  |  |  |  | 
37 | C/C(=N\NC(=O)c1ccc(C(F)(F)F)cc1)c1ccccc1O [Example 11] | 0.3 | 97.2 | 42.1 |  |  |  |  | 
38 | COc1cc([N+](=O)[O-])cc(/C=N/NC(=O)c2ccccc2)c1O [Example 155] | 1.9 | 78.3 | 32.0 |  |  |  |  | 
39 | C/C(=N\NC(=O)c1ccc([N+](=O)[O-])cc1)c1ccccc1O [Example 215] | 0.5 | 98.6 | 37.0 |  |  |  |  | 
40 | O=C(N/N=C/c1cc(Cl)cc(Br)c1O)c1cccc(Cl)c1 [Example 192] | 7.8 | 94.7 | 84.2 |  |  |  |  | 
41 | O=C(N/N=C/c1cc(Br)cc(Br)c1O)c1cccc(Cl)c1 [Example 122] | 13.5 | 98.7 | 92.7 |  |  |  |  | 
42 | C/C(=N\NC(=O)c1ccc2ccccc2c1O)c1cc(Cl)cc(Cl)c1O [Example 480] |  |  |  | 9.5 | 95.3 | 4.7 |  | 
43 | O=C(N/N=C/c1cc(Cl)cc([N+](=O)[O-])c1O)c1ccc(Cl)cc1 [Example 199] | 4 | 98.0 | 56.1 |  |  |  |  | 
44 | Cc1cccc(C(=O)N/N=C/c2cc(Br)cc(Br)c2O)c1 [Example 115] | 6.1 | 97.4 | 78.2 |  |  |  |  | 
45 | O=C(N/N=C/c1cc(Cl)cc(Cl)c1O)c1cccc(Br)c1 [Example 71] | 2.6 | 91.2 | 78.0 |  |  |  |  | 
46 | Cc1ccc(C(=O)N/N=C/c2cc(Cl)ccc2O)cc1 [Example 180] | 10.8 | 95.1 | 43.9 |  |  |  |  | 
47 | O=C(N/N=C/c1ccccc1O)c1ccc(Cl)cc1 [Example 2] | 0 | 95.1 | 61.4 |  |  |  |  | 
48 | C/C(=N\NC(=O)c1ccc(Cl)cc1)c1cc(Br)ccc1O [Example 293] | 7.9 | 95.7 | 19.0 |  |  |  |  | 
49 | COc1cccc(/C=N/NC(=O)c2ccccc2)c1O [Example 149] | 0 | 97.1 | 22.1 |  |  |  |  | 
50 | O=C(N/N=C/c1cc(Br)cc(Br)c1O)c1cccc(Br)c1 [Example 113] | 17 | 98.0 | 94.7 |  |  |  |  | 
